The values below are quoted from earlier work in US6372499B1, “Polymeric complexes for the transfection of nucleic acids, with residues causing the destabilisation of cell membranes” (I.D.M. Immuno-Designed Molecules, priority 1996, dated 2002).

Structures are written as SMILES.

For data set [1] the following is noted: persons, daily dose of 300 mg per day, after a few days.
The subject of data set [2] is cells. The settings on record: after a few hours.

For the molecule `CCN(CC)CCCC(C)Nc1ccnc2cc(Cl)ccc12` (stereo not drawn) [chloroquine], the plasma concentration entry in data set [1] is reported as “about 0.7 μM”. Moreover, the “intracellular concentration relative to the concentration in the medium” value in data set [2] is given as “more than 100 times higher”. Further, the intracellular concentration entry in data set [2] (initial concentration 100 μM) is “exceed 10 mM”.
